Measured values as given in PubChem BioAssay AID1963965 (Molecular Pharmacology Branch, DTP, NCI, 2024).

Tested on: 996289-038-R-J1-PDC spheroid viability
Test: Anticancer human tumor 996289-038-R-J1-PDC patient-derived colon adenocarcinoma cell line growth inhibition [PI3K]
Details: spheroids with HUVEC and MSC; for IC50: curve of first compound; for viability, T/C: stronger effect = lower value
How it was run: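 Multi-cell spheroids combine tumor cells with HUVEC and human MSCs, treated with targeted agents alone or with inavolisib, alpelisib, duvelisib or copanlisib. Concentrations fall in half-log steps from at or near clinical Cmax, or from 10 microM where Cmax is unknown; viability read-out.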
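Further: spheroids exposed to compounds for seven days before viability read.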
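Wherever viability, T/C is given: luminescence used as a proxy for viable cell amount; percent viability relative to DMSO vehicle control as 100%.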

For `CC(C)n1nc(-c2ccc3oc(N)nc3c2)c2c(N)ncnc21` + Cc1nc(NC(=O)N2CCCC2C(N)=O)sc1-c1ccnc(C(C)(C)C(F)(F)F)c1, the IC50 (second compound 0.0316 µM) was 54.8 nM, the IC50 (second compound 0.1 µM) was 27.3 nM and the IC50 (second compound 0.316 µM) was 41.5 nM. The IC50 (second compound 1 µM) was 26 nM, the IC50 (second compound 3.16 µM) was 2.54 nM and the IC50 (second compound 10 µM) was < 0.316 nM. For the same molecule, the viability, T/C (second compound 0.0316 µM, first compound 0.000316 µM) was 97.1%, the viability, T/C (second compound 0.0316 µM, first compound 0.001 µM) was 83.5% and the viability, T/C (second compound 0.0316 µM, first compound 0.00316 µM) was 89.2%. It also gave a viability, T/C (second compound 0.0316 µM, first compound 0.01 µM) of 79%, a viability, T/C (second compound 0.0316 µM, first compound 0.0316 µM) of 66.5% and a viability, T/C (second compound 0.0316 µM, first compound 0.1 µM) of 33.1%. The viability, T/C (second compound 0.1 µM, first compound 0.000316 µM) was 100%, the viability, T/C (second compound 0.1 µM, first compound 0.001 µM) was 83.2% and the viability, T/C (second compound 0.1 µM, first compound 0.00316 µM) was 78.4%. The viability, T/C (second compound 0.1 µM, first compound 0.01 µM) was 61.7%, the viability, T/C (second compound 0.1 µM, first compound 0.0316 µM) was 54.5% and the viability, T/C (second compound 0.1 µM, first compound 0.1 µM) was 25.4%. The viability, T/C (second compound 0.316 µM, first compound 0.000316 µM) was 77.7%, the viability, T/C (second compound 0.316 µM, first compound 0.001 µM) was 86.4% and the viability, T/C (second compound 0.316 µM, first compound 0.00316 µM) was 93%. For the same molecule, the viability, T/C (second compound 0.316 µM, first compound 0.01 µM) was 58.9%, the viability, T/C (second compound 0.316 µM, first compound 0.0316 µM) was 63.3% and the viability, T/C (second compound 0.316 µM, first compound 0.1 µM) was 24.1%. The viability, T/C (second compound 1 µM, first compound 0.000316 µM) was 72.5%, the viability, T/C (second compound 1 µM, first compound 0.001 µM) was 79.9% and the viability, T/C (second compound 1 µM, first compound 0.00316 µM) was 66.5%. The viability, T/C (second compound 1 µM, first compound 0.01 µM) was 59.5%, the viability, T/C (second compound 1 µM, first compound 0.0316 µM) was 49.8% and the viability, T/C (second compound 1 µM, first compound 0.1 µM) was 22.3%. For the same molecule, the viability, T/C (second compound 3.16 µM, first compound 0.000316 µM) was 63.9%, the viability, T/C (second compound 3.16 µM, first compound 0.001 µM) was 53% and the viability, T/C (second compound 3.16 µM, first compound 0.00316 µM) was 48.5%. It also gave a viability, T/C (second compound 3.16 µM, first compound 0.01 µM) of 40.6%, a viability, T/C (second compound 3.16 µM, first compound 0.0316 µM) of 32.3% and a viability, T/C (second compound 3.16 µM, first compound 0.1 µM) of 17.2%. The viability, T/C (second compound 10 µM, first compound 0.000316 µM) was 43.9%, the viability, T/C (second compound 10 µM, first compound 0.001 µM) was 40.8% and the viability, T/C (second compound 10 µM, first compound 0.00316 µM) was 40.4%. The viability, T/C (second compound 10 µM, first compound 0.01 µM) was 35.5%, the viability, T/C (second compound 10 µM, first compound 0.0316 µM) was 25.2% and the viability, T/C (second compound 10 µM, first compound 0.1 µM) was 14.2%.
